Laboratory results reported in US20200270310A1, “MAFG AS A POTENTIAL THERAPEUTIC TARGET TO RESTORE CHEMOSENSITIVITY IN PLATINUM-RESISTANT CANCER CELLS” (FUNDACÓIN PARA LA INVESTIGACIÓN BIOMÉDICA DEL HOSPITAL …, priority 2017, published 2020).
“And” between values parts separate entries of the source, which are not always exact repeats. Identical values can stand only once.

Experiments:
Assay type in all cases: cell-based, human
A2780-R cells = assay: Viability to CDDP, resistant index; conditions: versus parental A2780
Excerpt: (§1) Fifteen human cancer cell lines were purchased from ATCC (Manassas, Va.) or ECACC (Sigma-Aldrich, Spain) and cultured as recommended. The CDDP-resistant variants A2780R and OVCAR3R were selected after a final exposure to […] cisplatin, respectively (Farma Ferrer, Spain), as previously described for H23R and H460R variants The additional 11 human cell lines, PC-3, LNCAP, H727, HT29, A549, BT474, LoVo, IMIM-PC-2, SKOV3, SW780 and IMR90, were used for further validations. For viability assays cells were treated with increasing doses of CDDP. The epigenetic reactivation drugs 5Aza-2deoxycytidine (5Aza-dC) and trichostatin A (TSA) (Sigma-Aldrich, Spain) were used at […] and at 300nM respectively.

OVCAR3-R cells = assay: Viability to CDDP, resistant index; conditions: versus parental OVCAR3
Excerpt: as §1

H460R cells = assay: Viability to CDDP, resistant index; conditions: versus parental H460
Excerpt: as §1

H23R cells [1] = assay: Viability to CDDP, resistant index; conditions: versus H23S
Excerpt: as §1

A2780S cells = assay: Response to CDDP after overexpression of miR-7 candidate target genes
Protocol: (§2) cDNA plasmids transfection: a Myc-DDK-tagged ORF clone of MAFG, ELK-1 or ABCA1 and the negative control pCMV6 were used for in transient transfection (OriGene, USA). H23 and A2780 cells were plated onto 60-mm dishes at 6×10^5 cells/dish and transfected with a negative control, MAFG, ELK-1 or ABCA1 vectors (IDs: RC221486; RC208921 and RC221861) using jet-PEI DNA Transfection Reagent (PolyPlus Transfection, USA). For stable overexpression, lentiviruses carrying ELK-1 cDNA (Applied Biological Materials, Canada) were obtained by cotransfecting 15 μg of the specific lentiviral vector (pGIPZ-nonsilencing or pLenti-GIII-CMV-hELK-1-GFP-2A-Puro) and […] of each packaging vector (pCD-NL-BH and pMD2-VSV-G) in 10 million HEK 293T cells using Lipofectamine 2000 (Invitrogen, USA). Supernatants were taken at 48 hours posttransfection. A2780S cells were plated onto 60-mm dishes at 1×10^5 cells/dish and transduced with supernatant carrying nonsilencing or ELK-1 lentivirus, and polybrene was added (5 μg/ml).
(§3) To determine if the expression of the miR-7 candidate target genes was linked to CDDP response, we conducted their in transient overexpression in the sensitive cells comparing their response to CDDP with their parental resistant and sensitive cell lines, both transfected with an empty vector.

H23S cells = assay: as above
Protocol: as §2, §3

H23R cells [2] = assay: Viability to CDDP after aptamer transfection (resistance index); conditions: comparison value for apMAFG6F
Protocol: FIG. 6. Viability curves combining the best dose of aptamers (25nM) and increasing doses of CDDP. Each experimental group was exposed for 72 h to 6 different CDDP concentrations after aptamers transfection; data were normalized to each untreated control, set to 100% and represent the mean±SD of at least 3 independent experiments performed in quadruplicate at each drug concentration for each cell line analyzed 25nM of aptamers and increasing doses of CDDP in H23S/R cells.
Once identified the best dose of aptamers, cells were transfected with aptamers and treated with increased doses of CDDP to assay viability and ROS production as mentioned above. In parallel, for all the experiments, cells were seeded in 24-well plates for aptamers extraction and confirmation of aptamers transfection.
(§4) HEK293 and H23S/R cells were seeded into 96-well plates then transfected with 5, 12.5, 25, 75 and 100 nM of MAFG aptamers or treated with PBS-Mg using Jet Pei PolyPlus transfection reagent (PolyPlus Transfection, USA). The dose of 25 nM aptamer was afterwards used in combination with increased doses of CDDP to assay viability and ROS production as described above. To confirm the aptamer-transfection efficiency cells were seeded in 24-well plates for aptamer isolation and confirmation of aptamer transfection by quantitative analysis. A Myc-DDK-tagged ORF clone of MAFG the negative control pCMV6 were used for in transient transfection (OriGene, USA) in combination with MAFG-aptamers following the same procedure.

NRF2 = assay: Semiquantitative RT-PCR expression after cisplatin treatment
Protocol: For semiquantitative RT-PCR, 500 ng of total RNA isolated from cell lines was used for RT reaction using PrimeScript™ RT Master (Clontech-Takara, USA) and subsequent semiquantitative PCR using Promega PCR Mix (Promega, USA) as previously described. Relative quantification was performed by measuring the intensity of band amplified using ImageJ software. Primers for HMOX1 (F: 5′-[…]-3′; R: 5′-[…]-3′), MAFG (F: 5′-[…]-3′; R: 5′-[…]-3′) and GAPDH (F: 5′-GAGAGACCCTCACTGCTG-3′; R: 5′-[…]-3′) were designed to include the probe from the array in order to assure the correct transcript identification.

[3] = tested on: H23S cells overexpressing MAFG; assay: CDDP sensitivity of MAFG-overexpressing cells combined with aptamer
Protocol: as §4

[4] = versus sensitive line with empty vector

Row | Molecule | Resistant-Index (RI) to CDDP (A2780-R cells) | Resistant-Index (RI) to CDDP (OVCAR3-R cells) | Resistant-Index (RI) to CDDP (H460R cells) | Resistant-Index (RI) to CDDP (H23R cells [1]) | response to CDDP after transient ELK-1 overexpression (A2780S cells; 48 h of exposure to the drug) | sensitivity to CDDP after stable ELK-1 overexpression (A2780S cells; lentiviral transduction) | CDDP resistance index after MAFG overexpression (A2780S cells; [4]) | CDDP RI after ABCA1 overexpression (H23S cells; versus empty vector, not statistically significant (p=0.796)) | CDDP-RI after MAFG overexpression (H23S cells; [4]) | CDDP resistance index without aptamer (H23R cells [2]) | NRF2 expression after cisplatin treatment (NRF2) | CDDP sensitivity of MAFG-overexpressing cells with aptamer [3]
1 | [NH2][Pt]([NH2])([Cl])[Cl] [CDDP, Cisplatin] | 3.00 | 2.96 | 2.50 | 3.35 and > 3 | did not change the response to CDDP | did not change the sensitivity to CDDP | 1.6 | 1.5 | 1.7 | 2.63 | did not changed | 
2 | GCGGATGAAGACTGGTGTCGATGCATGTGTAGTGCATTTCGAGCCGTTCTATTGGTGTGCCCTAAATACGAGCAAC (nucleic acid, chemistry not given here, DNA aptamer selected against the MAFG protein by SELEX) GCGGATGAAGACTGGTGTCGATGCATGTGTAGTGCATTTCGAGCCGTTCTATTGGTGTGCCCTAAATACGAGCAAC |  |  |  |  |  |  |  |  |  |  |  | rescued the phenotype and re-sensitized the cells
